# Assay results as given in patent publication US5567711A, “Indole-3-carbonyl and indole-3-sulfonyl derivatives as platelet activating factor antagonists” (Abbott Laboratories, priority 1995, dated 1996).
# Structures can show the parent of a compound that is named as a salt. Where two headings read alike, the source gives them in different places.
# Target: PAF receptor (Oryctolagus cuniculus, UniProt G1TEI7)
# Assay: PAF receptor binding assay: inhibition of specific [^3 H]C18 -PAF binding to rabbit platelet membranes
# [1] = rabbit platelet membranes, 0.6 nM [^3 H]C18 -PAF, 60 minutes at room temperature, pH 7.0, Ki by Cheng and Prusoff from IC50, read-out: Ki
# Experimental: The ability of representative compounds of the present invention to inhibit PAF activity was determined in an in vitro test using the following method.
# Rabbit platelets were prepared by centrifugation and washing. The platelets were lysed by freeze-thawing and sonication; platelet membranes were prepared by centrifugation and washing. Final membrane preparations were stored frozen in 10 mM Tris/5 mM MgCl2 /2 mM EDTA (TME buffer, pH 7.0) with 0.25M sucrose added for membrane stabilization.
# The standard PAF receptor binding assay contained 10 μg platelet membrane protein, 0.6 nM [^3 H]C18 -PAF (from Amersham or New England Nuclear; specific activity 120-180 Ci/mmol), with and without test compound, in "binding buffer" consisting of TME with 0.25% bovine serum albumin added (Sigma, RIA grade). The final volume of the assay was 100 μl. The assay was conducted in Milliliter-GV® (Millipore Corp.) filtration plates; incubation time was for 60 minutes at room temperature (22°-23° C.). "Specific binding" was operationally defined as the arithmetic difference between "total binding" of 0.6 nM [^3 H]C18 -PAF (in the absence of added PAF) and "nonspecific binding" (in the presence of 1 μM PAF). After the prescribed incubation, platelet membranes were filtered under vacuum and washed with 1 milliliter of "binding buffer". The filters were dried and removed. The bound radioactivity was quantitated with a Berthold TLC-Linear Analyzer model LB2842.
# Experiments were repeated at least once. IC50 values (concentration producing 50% inhibition) were determined by point-to-point evaluation. Ki values of inhibitory binding constants were calculated according to the method of Cheng and Prusoff [Biochem. Pharmacol. 22 (1973) 3099-3108] whereby [formula]
# Sequence of PAF receptor (G1TEI7 1-342): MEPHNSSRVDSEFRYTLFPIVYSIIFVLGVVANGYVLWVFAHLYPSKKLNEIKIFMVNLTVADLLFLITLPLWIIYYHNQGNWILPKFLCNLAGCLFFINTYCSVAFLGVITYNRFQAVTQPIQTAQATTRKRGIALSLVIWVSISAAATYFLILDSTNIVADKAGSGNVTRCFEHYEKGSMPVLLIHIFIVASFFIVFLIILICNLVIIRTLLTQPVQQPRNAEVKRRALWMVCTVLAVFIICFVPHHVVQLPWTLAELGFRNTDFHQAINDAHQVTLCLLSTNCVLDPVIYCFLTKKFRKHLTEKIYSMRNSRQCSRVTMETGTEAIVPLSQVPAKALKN
Compound,Ki [1] [nM],also measured
Cc1nc2cnccc2n1CCN1CCN(S(=O)(=O)c2cn(C(=O)N(C)C)c3cc(-c4ccc(F)cc4)ccc23)CC1 [Example 18],110,–
"Cc1nc2cnccc2n1C1CCN(C(=O)c2c[nH]c3ccccc23)CC1 [Example 3, 3-{[4-(1H-2-methylimidazo[4,5-c]pyrid-1-yl)piperidin-1-yl]carbonyl}indole hydrochloride]",100,–
CCOCCn1cc(C(=O)CN2CCC(n3c(C)nc4cnccc43)CC2)c2c(C(=O)OC)cccc21 [Example 23],–,Ki: 5.2 nM
"Cc1nc2cnccc2n1C1CCN(S(=O)(=O)c2cn(C(=O)OC(C)(C)C)c3cc(-c4ccc(F)cc4)ccc23)CC1 [Example 12, 6-(4-fluorophenyl)-3-{[4-(1H-2-methylimidazo[4.5-c]pyrid-1-yl)piperidin-1-yl]sulfonyl}indole-1-carboxylic acid t-butyl ester]",340,–
"CCOCCn1cc(C(=O)N2CCC(Cn3c(C)nc4cnccc43)CC2)c2ccc(-c3ccc(F)cc3)cc21 [Example 8, 1-(2-ethoxyethyl)-6-(4-fluorophenyl)-3-{[4-(1H-2-methylimidazo[4,5-c]pyrid-1-yl)methylpiperidin-1-yl]carbonyl}indole hydrochloride]",–,Ki: 1.2 nM
CCOCCn1cc(C(=O)CN2CCC(n3c(C)nc4cnccc43)CC2)c2c(Cl)cccc21 [Example 25],–,Ki: 10 nM
"Cc1nc2cnccc2n1C1CCN(CC(=O)c2c[nH]c3cc(-c4ccc(F)cc4)ccc23)CC1 [Example 19, 6-(4-fluorophenyl)-3-{[4-(1H-2-methylimidazo[4.5-c]pyrid-1-yl)piperidin-1-yl]acetyl}indole]",95,–
"CCOCCn1cc(C(=O)N2CCC(Cn3c(C)nc4cnccc43)CC2)c2c(Cl)cccc21 [Example 9, 1-(2-ethoxyethyl)-4-chloro-3-{[4-(1H-2-methylimidazo[4.5-c]pyrid-1-yl)methylpiperidin-1-yl]carbonyl}indole hydrochloride]",–,"Ki (rabbit platelet membranes, 0.6 nM [^3 H]C18 -PAF, 60 minutes at room temperature, pH 7.0, Ki by Cheng and Prusoff from IC50): 29 nM"
"Cc1nc2cnccc2n1CC1CCN(S(=O)(=O)c2c[nH]c3cc(-c4ccc(F)cc4)ccc23)CC1 [Example 16, 6-(4-fluorophenyl)-3-{[4-(1H-2-methylimidazo[4.5-c]pyrid-1-yl)methylpiperidin-1-yl]sulfonyl}indole]",250,–
"COC(=O)c1cccc2c1c(C(=O)N1CCC(n3c(C)nc4cnccc43)CC1)cn2C(=O)N(C)C [Example 4, 3-{[4-(1H-2-methylimidazo[4.5-c]pyrid-1-yl)piperidin-1-yl]carbonyl}indole-1,4-dicarboxylic acid 1-dimethyl amide-4-methyl ester hydrochloride]",140,–
"COC(=O)c1cccc2c1c(C(=O)N1CCN(CCn3c(C)nc4cnccc43)CC1)cn2C(=O)N(C)C [Example 10, 3-[{4-[(2-(1H-2-methylimidazo[4.5-c]pyrid-1-yl)ethyl]piperazin-1-yl}carbonyl]indole-1,4-dicarboxylic acid 1-dimethyl amide 4-methyl ester hydrochloride]",200,–
"Cc1nc2cnccc2n1C1CCN(S(=O)(=O)c2cn(C(=O)N(C)C)c3cc(-c4ccc(F)cc4)ccc23)CC1 [Example 14, 6-(4-fluorophenyl)-3-{[4-(1H-2-methylimidazo[4.5-c]pyrid-1-yl)piperidin-1-yl]sulfonyl}indole-1-carboxylic acid dimethyl amide hydrochloride]",120,–
"Cc1nc2cnccc2n1C1CCN(S(=O)(=O)c2c[nH]c3cc(-c4ccc(F)cc4)ccc23)CC1 [Example 13, 6-(4-fluorophenyl)-3-{[4-(1H-2-methylimidazo[4.5-c]pyrid-1-yl)piperidin-1-yl]sulfonyl}indole]",–,"inhibition at 1 µM (@ 1.0 μM, rabbit platelet membranes, 0.6 nM [^3 H]C18 -PAF, 60 minutes at room temperature): 32%"
"CCOCCn1cc(C(=O)CN2CCC(n3c(C)nc4cnccc43)CC2)c2c(C)cccc21 [Example 28, 1-(2-ethoxyethyl)-4-methyl-3-{[4-(1H-2-methylimidazo[4.5-c]pyrid-1-yl)piperidin-1-yl]acetyl}indole]",–,Ki: 0.5 nM

# Continued, in another order:
Ki [1] [nM],Compound,also measured
18,"Cc1nc2cnccc2n1CC1CCN(C(=O)c2cn(C(=O)N(C)C)c3cccc(Cl)c23)CC1 [Example 7, 4-chloro-3-{[4-(1H-2-methylimidazo[4.5-c]pyrid-1-yl)methylpiperidin-1-yl]carbonyl}indole-1-carboxylic acid dimethyl amide hydrochloride]",–
14,"COC(=O)c1cccc2[nH]cc(C(=O)CN3CCC(n4c(C)nc5cnccc54)CC3)c12 [Example 21, 3-{[4-(1H-2-methylimidazo[4.5-c]pyrid-1-yl)piperidin-1-yl]acetyl}indole-4-carboxylic acid methy ester]",–
2.5,Cc1nc2cnccc2n1C1CCN(CC(=O)c2cn(C(=O)N(C)C)c3cc(-c4ccc(F)cc4)ccc23)CC1 [Example 20],–
71,"Cc1cccc2[nH]cc(C(=O)CN3CCC(n4c(C)nc5cnccc54)CC3)c12 [Example 27, 4-methyl-3-{[4-(1H-2-methylimidazo[4.5-c]pyrid-1-yl)piperidin-1-yl]acetyl}indole]",–
12,"COC(=O)c1cccc2c1c(C(=O)CN1CCC(n3c(C)nc4cnccc43)CC1)cn2C(=O)N(C)C [Example 22, 3-{[4-(1H-2-methylimidazo[4.5-c]pyrid-1-yl)piperidin-1-yl]acetyl}indole-1,4-dicarboxylic acid 1-dimethyl amide 4-methyl ester]",–
1.2,"Cc1nc2cnccc2n1CC1CCN(S(=O)(=O)c2cn(C(=O)N(C)C)c3cc(-c4ccc(F)cc4)ccc23)CC1 [Example 17, 6-(4-fluorophenyl)-3-{[4-(1H-2-methylimidazo[4.5-c]pyrid-1-yl)methylpiperidin-1-yl]sulfonyl}indole-1-carboxylic acid dimethyl amide]",–
30,"Cc1nc2cnccc2n1C1CCN(CC(=O)c2c[nH]c3cccc(Cl)c23)CC1 [Example 24, 4-chloro-3-{[4-(1H-2-methylimidazo[4.5-c]pyrid-1-yl)piperidin-1-yl]acetyl}indole]",–
30,"Cc1nc2cnccc2n1CCN1CCN(C(=O)c2cn(C(=O)N(C)C)c3cc(-c4ccc(F)cc4)ccc23)CC1 [Example 11, 6-(4-fluorophenyl)-3-[{4-[(2-(1H-2-methylimidazo[4.5-c]pyrid-1-yl)ethyl]piperazin-1-yl}carbonyl]indole-1-carboxylic acid dimethyl amide hydrochloride]",–
2,"Cc1cccc2c1c(C(=O)CN1CCC(n3c(C)nc4cnccc43)CC1)cn2C(=O)N(C)C [Example 29, 4-methyl-3-{[4-(1H-2-methylimidazo[4.5:c]pyrid-1-yl)piperidin-1-yl]acetyl}indole-1-carboxylic acid dimethyl amide]",–
2.4,"COC(=O)c1cccc2c1c(C(=O)[C@H]1CC[C@H](Cn3c(C)nc4cnccc43)CC1)cn2C(=O)N(C)C [Example 30, 3-{[trans-4-[(1H-2-methylimidazo[4.5-c]pyrid-1-yl)methylcyclohex-1-yl]carbonyl}indole-1,4-dicarboxylic acid 1-dimethyl amide 4-methyl ester hydrochloride]",–
12,"Cc1nc2cnccc2n1C1CCN(CC(=O)c2cn(C(=O)N(C)C)c3cccc(Cl)c23)CC1 [Example 26, 4-chloro-3-{[4-(1H-2-methylimidazo[4.5-c]pyrid-1-yl)piperidin-1-yl]acetyl}indole-1-carboxylic acid dimethyl amide]",–
65,"Cc1nc2cnccc2n1CC1CCN(S(=O)(=O)c2cn(C(=O)OC(C)(C)C)c3cc(-c4ccc(F)cc4)ccc23)CC1 [Example 15, 6-(4-fluorophenyl)-3-{[4-(1H-2-methylimidazo[4.5-c]pyrid-1-yl)methylpiperidin-1-yl]sulfonyl)indole-1-carboxylic acid t-butyl ester]",–
74,"COC(=O)c1cccc2c1c(C(=O)N1CCC(Cn3c(C)nc4cnccc43)CC1)cn2C(=O)N(C)C [Example 5, 1-N,N-dimethylcarbamoyl-4-methoxycarbonyl-3-{[4-(1H-2-methylimidazo[4.5-c]pyrid-1-yl)methylpiperidin-1-yl]carbonyl}indole-1,4-dicarboxylic acid 1-dimethyl amide-4-methyl ester hydrochloride]",–
3.3,"Cc1nc2cnccc2n1C1CCN(C(=O)c2cn(C(=O)N(C)C)c3cc(-c4ccc(F)cc4)ccc23)CC1 [Example 1, 6-(4-fluorophenyl)-3-{[4-(1H-2-methylimidazo[4.5-c]pyrid-1-yl)piperidin-1-yl]carbonyl)indole-1-carboxylic acid dimethyl amide hydrochloride]",–
44,"Cc1nc2cnccc2n1C1CCN(C(=O)c2c[nH]c3cc(-c4ccc(F)cc4)ccc23)CC1 [Example 2, 6-(4-fluorophenyl)-3-{[4-(1H-2-methylimidazo[4.5-c]pyrid-1-yl)piperidin-1-yl]carbonyl}indole hydrochloride]",–
2.5,"Cc1nc2cnccc2n1CC1CCN(C(=O)c2cn(C(=O)N(C)C)c3cc(-c4ccc(F)cc4)ccc23)CC1 [Example 6, 6-(4-fluorophenyl)-3-{[4-(1H-2-methylimidazo[4.5-c]pyrid-1-yl)methylpiperidin-1-yl]carbonyl}indole-1-carboxylic acid dimethyl amide hydrochloride]",–
